{
  "source": "patent US12220394B2",
  "about": "“Pharmaceutical composition for prevention or treatment of kidney damage” (National University Corporation Kanazawa University, priority 2018, dated 2025)",
  "key": {"[1]": {"test_system": "macrophages in kidney tissue", "experiment": "F4/80 immunostaining of kidney tissue after renal ischemia reperfusion", "type": "in vivo, C57BL/6J mice", "protocol": "The animals were reared with free access to water and feed under conditions with an SPF environment and 12-hour light-dark cycling. C57BL/6J mice were purchased from Clea Japan, Inc. (Osaka). Male 12- to 16-week-old mice were treated by renal ischemia reperfusion (hereunder also referred to as “I/R”). The renal pedicles were clamped with a non-traumatic clip (Natsume Seisakusho, Tokyo) under pentobarbital anesthesia to elicit ischemia. The clips were released after 40 minutes. The body temperature was kept at 37° C. during treatment. The mice were reared with free access to water (control) or 20 mM D-alanine-containing water, prior to 14 days after IR treatment. On day 10 after IR treatment, the kidney tissues were sampled. After ischemia reperfusion, the kidney tissues harvested on day 10 were fixed with 10% neutral buffered formalin and supplied for immunostaining using F4/80 antibody (Invitrogen, catalog #: MF48,000). F4/80 is a protein expressed specifically by macrophages, and it allows visualization of macrophages in kidney tissue. In the water-administered control group, cells stained with F4/80 were found accumulated in kidney tissue ([…]), but in the D-alanine-administered groups (20 mM and 80 mM) such cellular accumulation was minimal (FIG. 3(A)). The proportion of stained region in each group was measured (FIG. 3(B))."}, "[2]": {"test_system": "fibrotic tissue in kidney", "experiment": "AZAN staining of kidney tissue after renal ischemia reperfusion", "type": "in vivo, C57BL/6J mice", "protocol": "The animals were reared with free access to water and feed under conditions with an SPF environment and 12-hour light-dark cycling. C57BL/6J mice were purchased from Clea Japan, Inc. (Osaka). Male 12- to 16-week-old mice were treated by renal ischemia reperfusion (hereunder also referred to as “I/R”). The renal pedicles were clamped with a non-traumatic clip (Natsume Seisakusho, Tokyo) under pentobarbital anesthesia to elicit ischemia. The clips were released after 40 minutes. The body temperature was kept at 37° C. during treatment. The mice were reared with free access to water (control) or 20 mM D-alanine-containing water, prior to 14 days after IR treatment. On day 10 after IR treatment, the kidney tissues were sampled. After ischemia reperfusion, the kidney tissues sampled on day 10 were fixed with 10% neutral buffered formalin and provided for AZAN staining. In AZAN staining, fibrotic tissue is stained with aniline blue. […] The proportion of stained region in each group was measured (FIG. 4(B))."}, "[3]": {"conditions": "cited from earlier work"}, "[4]": {"test_system": "kidney tissue after ischemia reperfusion", "experiment": "PAS staining and ATN score of kidney tissue sections after renal ischemia reperfusion", "type": "in vivo, C57BL/6J mice", "conditions": "10 days after ischemia reperfusion", "protocol": "The animals were reared with free access to water and feed under conditions with an SPF environment and 12-hour light-dark cycling. C57BL/6J mice were purchased from Clea Japan, Inc. (Osaka). Male 12- to 16-week-old mice were treated by renal ischemia reperfusion (hereunder also referred to as “I/R”). The renal pedicles were clamped with a non-traumatic clip (Natsume Seisakusho, Tokyo) under pentobarbital anesthesia to elicit ischemia. The clips were released after 40 minutes. The body temperature was kept at 37° C. during treatment. […] On day 10 after IR treatment, the kidney tissues were sampled. After ischemia reperfusion, the kidneys sampled on day 10 were fixed with 10% neutral buffered formalin and embedded in paraffin, and then stained with periodic acid-Schiff (PAS staining). The stained slices were photographed with a bright-field microscope (FIG. 1). Debris stained with PAS (skin boundary) or brush border (skin boundary and cortical region) were quantitatively evaluated in at least 10 different locations. The debris, renal tubular dilation, brush border damage, and renal tubule necrosis were evaluated by ATN score (0: none, 1: mild, 2: moderate, 3: severe). Sample evaluation was carried out blind."}, "[5]": {"conditions": "10 days after ischemia reperfusion, D-alanine group vs water group"}, "[6]": {"conditions": "D-alanine group compared with water group"}},
  "data": [
    {"smiles": "C[C@@H](N)C(=O)O", "note": "[D-alanine]", "values": [
      {"measurement": "F4/80 staining intensity of kidney tissue section (accumulation of macrophages and monocytes)", "setting": "[1]; [5]", "value": "decreased in a dose-dependent manner"},
      {"measurement": "accumulation of cells stained with F4/80 in kidney tissue", "setting": "[1]; after ischemia reperfusion, D-alanine 20 mM and 80 mM vs water-administered control", "value": "minimal"},
      {"measurement": "AZAN staining intensity of kidney tissue section (fibrosis)", "setting": "[2]; [5]", "value": "decreased in a dose-dependent manner"},
      {"measurement": "aniline blue-stained regions (fibrotic tissue) in kidney tissue", "setting": "[2]; day 10 after ischemia reperfusion, D-alanine 20 mM and 80 mM vs water-administered control", "value": "reduced in a dose-dependent manner"},
      {"measurement": "adverse events when used as a food", "setting": "[3]; ingestion on the order of 10 g", "value": "No adverse events have been reported"},
      {"measurement": "toxicity via oral administration", "setting": "[3]; oral administration", "value": "no reported toxicity"},
      {"measurement": "PAS staining intensity of kidney tissue section (accumulation of inflammatory cells such as neutrophils and eosinophils)", "setting": "[4]; D-alanine 20 mM and 80 mM in drinking water vs water group", "value": "decreased in a dose-dependent manner"},
      {"measurement": "grade of brush border region in kidney tissue section (ATN score)", "setting": "[4]; [6]", "value": "improved in a dose-dependent manner"},
      {"measurement": "grade of intraluminal debris in kidney tissue section (ATN score)", "setting": "[4]; [6]", "value": "improved in a dose-dependent manner"},
      {"measurement": "grade of necrosis in kidney tissue section (ATN score)", "setting": "[4]; [6]", "value": "improved in a dose-dependent manner"}
    ]}
  ]
}
